“And” between values parts separate entries of the source, which are not always exact repeats. Equal values may be shown once.
Columns and labels:
human PD-L1 protein = target: T1, human PD-L1 protein (Homo sapiens, UniProt Q9NZQ7); experiment: PD-L1 binding assay with SPR (Biacore T200); conditions: for Kd: immobilized human PD-L1 (Fc Tag); for kon: association rate, read-out: PD-L1 Ka
T1 construct: Fc; purchased ACRO Biosystems

PD-1/PD-L1 interaction = target: T2, PD-1/PD-L1 interaction (Homo sapiens, UniProt Q9NZQ7); experiment: PD-1/PD-L1 blockade assay (pair ELISA); format: biochemical; conditions: for blockade effect on the PD-1/PD-L1 interaction (in words): test samples at 10 and 100 μM
T2 construct: purchased ACRO Biosystems
T2 sequence (Q9NZQ7 19-238 limits assumed): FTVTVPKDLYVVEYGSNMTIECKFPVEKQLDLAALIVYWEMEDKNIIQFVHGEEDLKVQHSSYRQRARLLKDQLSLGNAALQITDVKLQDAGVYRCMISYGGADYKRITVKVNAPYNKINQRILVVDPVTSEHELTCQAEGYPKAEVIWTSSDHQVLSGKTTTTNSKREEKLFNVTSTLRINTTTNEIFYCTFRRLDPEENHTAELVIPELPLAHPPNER

human PD-1 protein = target: T3, human PD-1 protein (Homo sapiens, UniProt Q15116); experiment: PD-1 binding assay with SPR (Biacore T200); conditions: for kon: association rate, read-out: PD-1 Ka; for Kd: immobilized human PD-1 (Fc Tag)
T3 construct: Fc; purchased ACRO Biosystems
T3 sequence (Q15116 25-288): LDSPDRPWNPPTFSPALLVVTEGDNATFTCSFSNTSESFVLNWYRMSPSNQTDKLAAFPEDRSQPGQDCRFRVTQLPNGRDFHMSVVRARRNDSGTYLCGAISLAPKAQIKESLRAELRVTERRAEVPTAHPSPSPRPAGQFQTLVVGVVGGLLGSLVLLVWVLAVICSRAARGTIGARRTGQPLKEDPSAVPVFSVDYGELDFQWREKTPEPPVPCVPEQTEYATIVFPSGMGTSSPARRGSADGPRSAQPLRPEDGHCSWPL
Procedure: The PD-1/PD-L1 binding affinity of test natural compounds was measured on a SPR Biacore T200 instrument (GE Healthcare; Marlborough, MA, USA). Human PD-L1and PD-1 proteins (both with a Fc Tag) were purchased from ACRO Biosystems (Newark, DE, USA). Carboxymethylated CM 5 SPR chips were purchased from GE Healthcare (Marlborough, MA, USA). The SPR binding channels were set as: Cell-1, blank immobilization; Cell-2, human PD-L1 protein was immobilized by the injection of protein solution (40 μg/mL) in sodium acetate buffer (10 mM; pH 4.5); Cell-3, human PD-1 protein was immobilized by the injection of protein solution (40 μg/mL) in sodium acetate buffer (10 mM; pH 5.0). Approximately, 5500 and 4500 RU of human PD-1 and PD-L1 proteins, respectively, were immobilized on the flow cells with an amine coupling method.

PD-1/PD-L1 = test system: PD-1/PD-L1; design: method as in PMID 30068796; conditions: homogenous AlphaLISA assay; read-out: IC50 of PD-1/PD-L1 blockade; cited from earlier work

T1 sequence (Q9NZQ7 19-290): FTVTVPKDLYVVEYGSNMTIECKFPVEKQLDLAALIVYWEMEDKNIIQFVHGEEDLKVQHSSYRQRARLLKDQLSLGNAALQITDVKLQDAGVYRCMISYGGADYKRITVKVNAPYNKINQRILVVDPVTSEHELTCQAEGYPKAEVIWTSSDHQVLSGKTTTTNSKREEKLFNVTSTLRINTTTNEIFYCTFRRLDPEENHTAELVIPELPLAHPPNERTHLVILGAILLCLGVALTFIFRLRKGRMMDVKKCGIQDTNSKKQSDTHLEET

## O=C1O[C@H]2[C@@H]3OC(=O)c4cc(O)c(O)c(O)c4-c4c(O)c(O)c5oc(=O)c6c(c(O)c(O)c7oc(=O)c4c5c76)-c4c(cc(O)c(O)c4O)C(=O)OC[C@H]3OC(O)[C@@H]2OC(=O)c2cc(O)c(O)c(O)c2-c2c1cc(O)c(O)c2O (mixture of isomers) [punicalagin]
Human PD-L1 protein; protein not specified further (PD-1/PD-L1 proteins), earlier observation of the authors
  binding capacity to PD-1/PD-L1 proteins (in words): detectable binding capacity
PD-1/PD-L1 interaction; earlier observation of the authors, concentration not given
  activity in the PD-1/PD-L1 blockade assay (in words): not active

## Cc1c(COc2cc(OCc3cccc(C#N)c3)c(CN3C[C@H](O)C[C@@H]3C(=O)O)cc2Cl)cccc1-c1ccc2c(c1)OCCO2 [BMS1166, reference compound]
PD-1/PD-L1 interaction; compound at 10 μM
  blockade of the PD-1/PD-L1 interaction: 99.3%

## O=c1oc2c(O)c(O)cc3c(=O)oc4c(O)c(O)cc1c4c23 [EA, ellagic acid]
Human PD-L1 protein
  Kd: 26.2 µM
Human PD-1 protein
  kon: 410 M⁻¹ s⁻¹
  Kd: 1.82 µM
PD-1/PD-L1 interaction
  blockade effect on the PD-1/PD-L1 interaction (in words): not detected

## O=C(OC[C@H]1O[C@@H](OC(=O)c2cc(O)c(O)c(O)c2)[C@H](OC(=O)c2cc(O)c(O)c(O)c2)[C@@H](OC(=O)c2cc(O)c(O)c(O)c2)[C@@H]1OC(=O)c1cc(O)c(O)c(O)c1)c1cc(O)c(O)c(O)c1 [PGG, pentagalloyl glucose]
Human PD-L1 protein
  kon: 413 M⁻¹ s⁻¹
  Kd: 2.23 µM
Human PD-1 protein
  kon: 3940 M⁻¹ s⁻¹
  Kd: 27.2 µM
PD-1/PD-L1 interaction
  blockade effect on the PD-1/PD-L1 interaction (in words): not detected

## CO[C@H]1/C=C/O[C@@]2(C)Oc3c(C)c(O)c4c(c3C2=O)C2=NC3(CCN(CC(C)C)CC3)NC2=C(NC(=O)/C(C)=C\C=C\[C@H](C)[C@H](O)[C@@H](C)[C@@H](O)[C@@H](C)[C@H](OC(C)=O)[C@@H]1C)C4=O [Rifabutin, rifabutin, reference compound]
PD-1/PD-L1
  IC50: 25 µM
Human PD-L1 protein
  binding affinity to PD-L1 protein (in words): not detectable
Human PD-1 protein
  binding affinity to PD-1 protein (in words): not detectable
PD-1/PD-L1 interaction; compound at 100 μM
  blockade of the PD-1/PD-L1 interaction: 58.6%

## O=C(OC[C@H]1O[C@@H](OC(=O)c2cc(O)c(O)c(OC(=O)c3cc(O)c(O)c(O)c3)c2)[C@H](OC(=O)c2cc(O)c(O)c(OC(=O)c3cc(O)c(O)c(O)c3)c2)[C@@H](OC(=O)c2cc(O)c(O)c(OC(=O)c3cc(O)c(O)c(O)c3)c2)[C@@H]1OC(=O)c1cc(O)c(O)c(OC(=O)c2cc(O)c(O)c(O)c2)c1)c1cc(O)c(O)c(OC(=O)c2cc(O)c(O)c(O)c2)c1 [TA, tannic acid]
Human PD-L1 protein
  Kd: 1.21 µM
Human PD-1 protein
  Kd: 1.46 µM
PD-1/PD-L1 interaction; compound at 10 μM
  blockade of the PD-1/PD-L1 interaction: 11.0%
PD-1/PD-L1 interaction; compound at 100 μM
  blockade of the PD-1/PD-L1 interaction: 36.9%

## O=c1cc(-c2ccc(O)cc2)oc2cc(O[C@@H]3O[C@H](CO)[C@@H](O)[C@H](O)[C@H]3O)cc(O)c12 [cosmosiin]
Human PD-L1 protein
  selectivity of binding (PD-L1 versus PD-1): selective binding to the PD-L1 protein
  kon: 785 M⁻¹ s⁻¹
  koff (dissociation rate constant) to PD-L1: 0.00261 s⁻¹
  Kd: 3.32 µM
PD-1/PD-L1 interaction; compound at 100 μM
  blockade of the PD-1/PD-L1 interaction: 55.8%

## O=c1c(O)c(-c2ccc(O)cc2)oc2cc(O)cc(O)c12 [kaempferol]
Human PD-L1 protein
  kon: 5460 M⁻¹ s⁻¹
  Kd: 33 µM and 32.9 µM
Human PD-1 protein; PD-1 stronger than PD-L1
  binding affinity to PD-1 protein relative to PD-L1 protein: 100 fold
Human PD-1 protein
  kon: 504 M⁻¹ s⁻¹
  Kd: 0.304 µM and 0.303 µM
PD-1/PD-L1 interaction; compound at 10 μM
  blockade of the PD-1/PD-L1 interaction: 4.1%
PD-1/PD-L1 interaction; compound at 100 μM
  blockade of the PD-1/PD-L1 interaction: 63.4%

## Oc1ccc(/C=C/c2cc(O)cc(O)c2)cc1 [resveratrol]
Human PD-L1 protein
  koff (dissociation rate constant) to PD-L1: 0.06435 s⁻¹
  Kd: 37.9 µM

## O=c1oc2cc(O)ccc2c2ccc(O)cc12 [urolithin A]
Human PD-L1 protein
  binding affinity to PD-L1 protein (in words): not detectable
Human PD-1 protein
  binding affinity to PD-1 protein (in words): not detectable
PD-1/PD-L1 interaction; compound at 100 μM
  blockade of the PD-1/PD-L1 interaction: 39.7%

— article PMC9511049, “Further investigation of blockade effects and binding affinities of selected natural compounds to immune checkpoint PD-1/PD-L1” (Frontiers in Oncology, 2022)
